This is an account of results in US20250073169A1, “POLYMER NANOPARTICLES VIA CONDENSED DROPLET POLYMERIZATION” (CORNELL UNIVERSITY, priority 2021, published 2025).

This series in a line: Static contact angle of liquid monomer on coated substrate (goniometer). It counts as physicochemical. The protocol: Contact angle and aspect ratio analysis: Contact angle measurements were performed using a Ramé-Hart Model 500 contact angle goniometer. A pipette was used to dispense 5 μL of liquid HEMA, 4VP, and DVB onto the substrate for static contact angle measurements.

The mark [1] stands for this setting: 5 μL liquid monomer on flattened PPFDA base layer, n=5.

The molecule `C=Cc1ccncc1` [4VP, 4-vinylpyridine] displayed a contact angle under setting [1] of 80.6±1.7 °. Regarding `C=C(C)C(=O)OCCO` [HEMA, 2-hydroxyethyl methacrylate], the contact angle was found to be 18.5±1.1 ° (5 μL liquid monomer on PDVB thin film coated substrate, n=4) and 86.4±1.0 ° under setting [1]. Under setting [1], divinylbenzene [DVB] displayed a contact angle of 86.5±1.6 °.
